Laboratory results from patent US8466186B2, “Compounds” (Boehringer Ingelheim International GmbH, priority 2010, dated 2013).

What follows are compounds tested against T1, recombinant human mPGES-1 (Homo sapiens, UniProt O14684) (assay: Assay A: mPGES-1 enzyme assay (HTRF detection of PGE2)). Conditions: biological assay A; microsomes from E. coli expressing recombinant human mPGES-1; read-out: mPGES-1 inhibitory effect IC50.
T1 construct: made in house; host or cells: Rosetta E. coli (membrane/microsome fraction)
T1 sequence (O14684 1-152): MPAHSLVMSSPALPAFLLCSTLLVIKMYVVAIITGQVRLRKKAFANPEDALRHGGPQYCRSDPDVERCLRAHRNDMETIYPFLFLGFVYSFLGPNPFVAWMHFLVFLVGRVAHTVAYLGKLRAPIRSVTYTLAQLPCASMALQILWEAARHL
Type: biochemical
From the text: The aim of this assay is to determine the affinity of a test compound for the mPGES-1 enzyme.
• 1. Riendeau, D., R. Aspiotis, D. Ethier, Y. Gareau, E. Grimm, J. Guay, S. Guiral, H. Juteau, J. Mancini, N. Methot, J. Rubin, and R. Friesen, Inhibitors of the inducible microsomal prostaglandin E2 synthase (mPGES-1) derived from MK-886. Bioorg Med Chem Lett, 2005. 15(14): p. 3352-3355. • 2. Cote, B., L. Boulet, C. Brideau, D. Claveau, D. Ethier, R. Frenette, M. Gagnon, A. Giroux, J. Guay, S. Guiral, J. Mancini, E. Martins, F. Masse, N. Methot, D. Riendeau, J. Rubin, D. Xu, H. Yu, Y. Ducharme, and R. Friesen, Substituted phenanthrene imidazoles as potent, selective, and orally active mPGES-1 inhibitors. Bioorg Med Chem Lett, 2007. 17(24): p. 6816-6820. Assay A: mPGES-1 Enzyme Assay List of Reagents Used: • Glutathione (Sigma, G-4251) • Freeze culture in Rosetta E coli expression strain. • LB growth media with Ampillicillin (Amp) final concentration in culture 50 μg/mL • Chloroamphenicol stock 34 mg/mL (chloro) final concentration in culture 34 μg/mL • Sterile growth flasks for 500 mL-1 liter cultures • 0.1 M KP, buffer pH 7.4 • 9.25% HCl • PGH2 (0.25 mM) • Fe (II) Cl2 tetrahydrate, 99% (Sigma, 220229) • 384-well plate with compounds • 96-well plate, polypropylene (Thermo fast 96 skirted VWR) • 384-well plate polypropylene PCR plate (Greiner 785201) • Greiner 384-well plate pp (In vitro cat. no. 781280) • Adhesive sealing film for 96-well plates (Sigma-Aldrich) • Aluminium foil (PCR foil, 310-0030-127-471 from Labora) • PBS (GIBCO 14040) • Prostaglandin E2 Assay (Cisbio, cat. no. 62P2APEC) • Biomek FX robot (Beckman Coulter) • Biomek NX robot (Beckman Coulter) • Multidrop; micro or combi (ThermoLabsystems) • Plate reader: Safire2 (Tecan)
Microsomes from Rosetta E. coli bacteria expressing recombinant human mPGES-1 can be derived as described below:
Inoculate 5 mL LB with Amp and Chloro with bacteria from freeze culture. Incubate overnight at 37° C. with 200 rpm. Thereafter, inoculate 500-800 mL LB containing Amp and Chloro with the 5 mL on culture and grow to OD640 of 0.6-0.8. Chill the culture to +4° C. before induction. Induce the culture with IPTG at a final concentration of 400 μM. Express the protein at room temp 18-23° C. with 200 rpm shaking overnight.
The following steps can be performed on the following day: • 1. Spin down the cells in 250 mL centrifuge flasks for 15 min at 7000 rpm • 2. Dissolve the pellet from 250 mL culture in 12.5 mL homogenization buffer • 3. Disintegrate the cells by sonication, 4×10 seconds at 35% amplitude • 4. Add 2.5 mL MgCl2 (100 mM) and DNase 12.5 μL (0.8 mg/mL) and incubate on ice for 30 min • 5. Spin down the bacteria debris and save the supernatant, 7000 rpm for 15 min • 6. Isolate the protein containing membranes in the supernatant by ultracentrifugation 45000×g for 1 hour. • 7. Discard the supernatant and dissolve the pellet in 20 mM KPi buffer and aliquot the enzyme and store aliquots at −80° C.
Before each experiment is performed an aliquot of the enzyme is thawed and it can then be dissolved in 0.1 M KP, pH 7.4 buffer containing 2.5 mM GSH. 50 μL of this enzyme solution is subsequently dispensed in a 384-well plate at room temperature. 0.5 μL of the inhibitor dissolved in DMSO is thereafter added to each well and incubated for 25 minutes at room temperature. Subsequently, 2 μL of PGH2 dissolved in an appropriate solvent is added to each well and after one minute at room temperature, the acidified stop solution containing FeCl2 is added. 4 μL of the total volume is transferred to a separate plate and diluted 750-fold in two separate steps before quantification of PGE2.
In order to quantitate the amount of PGE2 that has been formed, a homogenous time resolved fluorescent (HTRF) detection of PGE2 can be performed by the use of a commercially available kit from CisBio essentially according to the manufacturer's protocol. […]

IC50 [nM] | SMILES
143 | O=C(NCc1ccc(Cl)c(Nc2nc3cc(Cl)c(N4CCC[C@@H]4CO)cc3[nH]2)c1)C1(C(F)(F)F)CC1 [Example 9, (R)—N-{4-Chloro-3-[5-chloro-6-(2-hydroxymethyl-pyrrolidin-1-yl)-1H-benzimidazol-2-ylamino]-benzyl}-1-trifluoromethyl-cyclopropanecarboxamide]
13 | Cn1c(Nc2cc(CNC(=O)C3(O)CC3)ccc2C(F)(F)F)nc2cc(Cl)c(N3CCC(C(F)(F)F)CC3)cc21 [Example 107]
15 | Cn1c(Nc2cc(CNC(=O)C(N)C(F)(F)F)ccc2Cl)nc2cc(Cl)c(N3CCCC(C(F)(F)F)C3)cc21 (stereo not shown) [Example 65]
4 | Cn1c(Nc2cc(CNS(=O)(=O)C(C)(C)C)ccc2Cl)nc2cc(Cl)c(N3CCC(C(F)(F)F)CC3)cc21 [Example 99, N-(4-Chloro-3-(5-chloro-1-methyl-6-(4-trifluoromethyl-piperidin-1-yl)-1H-benzo[d]imidazol-2-ylamino)benzyl)-2-methylpropane-2-sulfonamide]
> 100 | CC(C)(C)C(=O)NCc1ccc(Cl)c(Nc2nc3cc(N4CCCC4)ccc3[nH]2)c1 [Example 20]
25 | COC[C@@H]1CCCN1c1cc2[nH]c(Nc3cc(CNC(=O)C4(C(F)(F)F)CC4)ccc3Cl)nc2cc1Cl [Example 133, (S)—N-{4-Chloro-3-[5-chloro-6-(2-methoxymethyl-pyrrolidin-1-yl)-1H-benzo[d]imidazol-2-ylamino]benzyl}-1-trifluoromethyl-cyclopropanecarboxamide]
8.7 | O=C(NCc1ccc(Cl)c(Nc2nc3cc(Cl)c(N4CCC(C(F)(F)F)CC4)cc3[nH]2)c1)C1(C(F)(F)F)CC1 [Example 75]
6.1 | O=C(NCc1ccc(Cl)c(Nc2nc3cc(Cl)c(N4CCC(C(F)(F)F)CC4)cc3n2CC(F)(F)F)c1)C1(C(F)(F)F)CC1 [Example 89]
3.6 | Cn1c(Nc2cc(CNC(=O)C3(C(F)(F)F)CC3)ccc2Cl)nc2cc(Cl)c(N3CCC(c4ccc(F)cc4)CC3)cc21 [Example 91]
11 | Cn1c(Nc2cc(CNC(=O)C3(C(F)(F)F)CC3)ccc2F)nc2cc(C#N)c(N3CCC(C(F)(F)F)CC3)cc21 [Example 113]
2.4 | Cn1c(Nc2cc(CNC(=O)C3(C(F)(F)F)CC3)ccc2Cl)nc2cc(Cl)c(N3CCC(F)(F)CC3)cc21 [Example 79]
29 | Cn1c(Nc2cc(CNC(=O)C3(C)CCCCC3)ccc2Cl)nc2ccc(N3CCCC3)cc21 [Example 123]
15 | N#Cc1cc2nc(Nc3cc(CNC(=O)C4(C(F)(F)F)CC4)ccc3Cl)[nH]c2cc1N1CCCC(C(F)(F)F)C1 (stereo not shown) [Example 130]
7.7 | Cn1c(Nc2cc(CNS(=O)(=O)C(C)(C)C)ccc2Cl)nc2cc(Cl)c(N3CCN(c4ccc(C(F)(F)F)cc4)CC3)cc21 [Example 100]
26 | N#Cc1cc2nc(Nc3cc(CNC(=O)C4(C(F)(F)F)CC4)ccc3Cl)[nH]c2cc1N1CCCC1 [Example 127]
2.4 | Cn1c(Nc2cc(CNC(=O)C3CC3)ccc2C(F)(F)F)nc2cc(Cl)c(N3CCC(C(F)(F)F)CC3)cc21 [Example 102]

IC50 [nM] | SMILES
32 | CC(C)N1CCN(c2cc3c(cc2Cl)nc(Nc2cc(CNC(=O)C4(C(F)(F)F)CC4)ccc2Cl)n3C)CC1 [Example 125]
140 | CN1CCN(c2cc3c(cc2Cl)nc(Nc2cc(CNC(=O)C4(C(F)(F)F)CC4)ccc2Cl)n3C)CC1 [Example 11, N-{4-Chloro-3-[5-chloro-1-methyl-6-(4-methyl-piperazin-1-yl)-1H-benzimidazol-2-ylamino]-benzyl}-1-trifluoromethyl-cyclopropanecarboxamide]
6.7 | COCCn1c(Nc2cc(CNC(=O)C3(C(F)(F)F)CC3)ccc2Cl)nc2cc(Cl)c(N3CCC(C(F)(F)F)CC3)cc21 [Example 81]
79 | CCCC(C)(C)C(=O)NCc1ccc(Cl)c(Nc2nc3cc(N4CCCC4)ccc3[nH]2)c1 [Example 18]
3.9 | CC(C(=O)NCc1ccc(C(F)(F)F)c(Nc2nc3cc(Cl)c(N4CCC(C(F)(F)F)CC4)cc3n2C)c1)C(F)(F)F (stereo not shown) [Example 105, N-{4-Trifluoromethyl-3-[5-chloro-1-methyl-6-(4-trifluoromethyl-piperidin-1-yl)-1H-benzimidazol-2-ylamino]-benzyl}-3,3,3-trifluoro-2-methyl-propanamide]
1.5 | Cn1c(Nc2cc(CNS(=O)(=O)C(C)(C)C)ccc2C(F)(F)F)nc2cc(Cl)c(N3CCC(C(F)(F)F)CC3)cc21 [Example 110, N-(4-Trifluoromethyl-3-(5-chloro-1-methyl-6-(4-trifluoromethyl-piperidin-1-yl)-1H-benzo[d]imidazol-2-ylamino)benzyl)-2-methylpropane-2-sulfonamide]
7.3 | Cn1c(Nc2cc(CNC(=O)C3(C(F)(F)F)CC3)ccc2Cl)nc2cc(F)c(N3CCC(C(F)(F)F)CC3)c(F)c21 [Example 84, N-{4-Chloro-3-[5,7-difluoro-1-methyl-6-(4-trifluoromethyl-piperidin-1-yl)-1H-benzimidazol-2-ylamino]-benzyl}-1-trifluoromethyl-cyclopropanamide]
2 | Cn1c(Nc2cc(CNC(=O)c3c(F)cccc3Cl)ccc2C(F)(F)F)nc2cc(Cl)c(N3CCC(C(F)(F)F)CC3)cc21 [Example 103]
22 | Cn1c(Nc2cc(CNC(=O)C3(C(F)(F)F)CC3)ccc2F)nc2cc(Cl)c(N3CCC(F)(F)CC3)cc21 [Example 112]
53 | CC1(C(=O)NCc2ccc(Cl)c(Nc3nc4ccc(N5CCCC5)cc4[nH]3)c2)CCCCC1 [Example 118]
1.3 | Cn1c(Nc2cc(CNC(=O)C3(C(F)(F)F)CC3)ccc2Cl)nc2cc(Cl)c(N3CCN(c4ccc(C(F)(F)F)cc4)CC3)cc21 [Example 83, N-{4-Chloro-3-[5-chloro-1-methyl-6-(4-(4-trifluoromethylphenyl)-piperazin-1-yl)-1H-benzimidazol-2-ylamino]-benzyl}-1-trifluoromethyl-cyclopropanamide]
2.6 | Cn1c(Nc2cc(CNC(=O)C3(C(F)(F)F)CC3)ccc2Cl)nc2cc(Cl)c(N3CCCC(C(F)(F)F)C3)cc21 (stereo not shown) [Example 124]
120 | CC(C)(C)C(=O)NCc1ccc(OC(F)(F)F)c(Nc2nc3cc(C#N)c(N4CCCC(C(F)(F)F)C4)cc3[nH]2)c1 (stereo not shown) [Example 117, N-{3-(5-Cyano-6-[3-trifluoromethyl-piperidin-1-yl)-1H-benzo[d]imidazol-2-ylamino]-4-trifluoromethoxy-benzyl}-2,2-dimethyl-propionamide]
106 | CC(C)(C)C(=O)NCc1ccc(Cl)c(Nc2nc3cc(Cl)c(N4CCC(C#N)C4)cc3[nH]2)c1 (stereo not shown) [Example 8, N-{4-Chloro-3-[5-chloro-6-(3-cyano-pyrrolidin-1-yl)-1H-benzimidazol-2-ylamino]-benzyl}-2,2-dimethyl-propionamide]
4.8 | Cn1c(Nc2cc(CNC(=O)C(C)(O)C(F)(F)F)ccc2Cl)nc2cc(Cl)c(N3CCCC(C(F)(F)F)C3)cc21 (stereo not shown) [Example 14]
